Experimental data taken from ChEMBL document CHEMBL5257089, “Gamabufotalin Induces Apoptosis and Cytoprotective Autophagy through the mTOR Signaling Pathway in Hepatocellular Carcinoma” (J Nat Prod, 2023).
Calls of active or inactive are those of the source. The rule behind the calls is not given here.

Key:
Hep 3B2 [1] = test: Induction of apoptosis in human Hep3B cells assessed as viable cells at 10 nM incubated for 48 hrs by Annexin V-FITC/PI staining based flow cytometry method (reference value: 94.0%); format: functional; conditions: read-out: Activity
Hep 3B2 [2] = test: Induction of apoptosis in human Hep3B cells assessed as early apoptotic cells at 10 nM incubated for 48 hrs by Annexin V-FITC/PI staining based flow cytometry method (reference value: 1.3%); format: functional
Huh-7 [3] = test: Induction of autophagic flux in human Huh-7 cells harbouring mCherry-egfp-LC3 assessed as reduction in number of yellow puncta ratio at 10 nM incubated for 15 mins in presence of gamabufotalin by laser scanning confocal microscopic analysis; format: functional, cell-based
Hep 3B2 [4] = test: Induction of apoptosis in human Hep3B cells assessed as increase in PARP level at 10 nM incubated for 48 hrs in presence of gamabufotalin by immunoblot analysis; format: functional, cell-based
Huh-7 [5] = test: Induction of autophagy in human Huh-7 cells assessed as rescue of mTOR phosphorylation level at upto 10 nM incubated for 48 hrs in presence of gamabufotalin by immunoblot method; format: functional, cell-based
Huh-7 [6] = test: Induction of apoptosis in human Huh-7 cells assessed as late apoptotic cells at 10 nM incubated for 48 hrs by Annexin V-FITC/PI staining based flow cytometry method (reference value: 4.7%); format: functional
[7] = Toxicity in mouse assessed as effect on liver at 5 mg/kg,ip administered every second day for 3 weeks by H and E staining based microscopic method; format: organism-based; conditions: in vivo, 504 h
Hep 3B2 [8] = test: Induction of apoptosis in human Hep3B cells assessed as necrotic cells at 25 nM incubated for 48 hrs by Annexin V-FITC/PI staining based flow cytometry method (reference value: 1.2%); format: functional
Huh-7 [9] = test: Induction of apoptosis in human Huh-7 cells assessed as late apoptotic cells at 15 nM incubated for 48 hrs by Annexin V-FITC/PI staining based flow cytometry method (reference value: 2.2%); format: functional
Huh-7 [10] = test: Induction of autophagic flux in human Huh-7 cells harbouring mCherry-egfp-LC3 assessed as reduction in number of yellow puncta ratio at 25 nM incubated for 15 mins in presence of chloroquine by laser scanning confocal microscopic analysis; format: functional, cell-based
Huh-7 [11] = test: Induction of apoptosis in human Huh-7 cells assessed as viable cells at 25 nM incubated for 48 hrs by Annexin V-FITC/PI staining based flow cytometry method (reference value: 91.5%); format: functional; conditions: read-out: Activity
Hep 3B2 [12] = test: Induction of autophagy in human Hep3B cells assessed as restoration of mTOR phosphorylation expression at 25 uM incubated for 48 hrs in presence of 4,6-dimorpholino-N-(4-nitrophenyl)-1,3,5-triazin-2-amine by immunoblot analysis; format: functional, cell-based
Hep 3B2 [13] = test: Induction of autophagic flux in human Hep3B cells assessed as rescue of LC3-II accumulation at 25 uM incubated for 48 hrs in presence of chloroquine by Western blot analysis; format: functional, cell-based
Hep 3B2 [14] = test: Induction of apoptosis in human Hep3B cells assessed as late apoptotic cells at 25 nM incubated for 48 hrs in presence of chloroquine by Annexin V-FITC/PI staining based flow cytometry method (reference value: 3.5%); format: functional
Hep 3B2 [15] = test: Induction of autophagy in human Hep3B cells assessed as rescue of ULK1 phosphorylation level at upto 25 nM incubated for 48 hrs in presence of chloroquine by immunoblot method; format: functional, cell-based
Huh-7 [16] = test: Induction of apoptosis in human Huh-7 cells assessed as early apoptotic cells at 15 nM incubated for 48 hrs by Annexin V-FITC/PI staining based flow cytometry method (reference value: 1.7%); format: functional
[17] = Toxicity in mouse assessed as effect on serum AST level at 5 mg/kg,ip administered every second day for 3 weeks by H and E staining based microscopic method; format: organism-based; conditions: in vivo, 504 h
Huh-7 [18] = test: Induction of autophagic flux in human Huh-7 cells assessed as increase in high electron density vesicles at 25 nM incubated for 48 hrs by transmission electron microscopic analysis; format: functional, cell-based
Huh-7 [19] = test: Induction of apoptosis in human Huh-7 cells assessed as increase in caspase-3 expression at upto 25 nM incubated for 48 hrs by Western blot analysis; format: functional, cell-based
[20] = Toxicity in mouse assessed as effect on heart at 5 mg/kg,ip administered every second day for 3 weeks by H and E staining based microscopic method; format: organism-based; conditions: in vivo, 504 h
Hep 3B2 [21] = test: Induction of apoptosis in human Hep3B cells assessed as early apoptotic cells at 25 nM measured after 48 hrs by Annexin V-FITC/PI staining based flow cytometry method (reference value: 1.3%); format: functional
Huh-7 [22] = test: Induction of autophagic flux in human Huh-7 cells assessed as increase in LC3-II expression at upto 25 nM incubated for 48 hrs by Western blot analysis; format: functional, cell-based
Huh-7 [23] = test: Induction of apoptosis in human Huh-7 cells assessed as increase in cleaved caspase-3 level at 25 nM incubated for 48 hrs in presence of chloroquine by immunoblot analysis; format: functional, cell-based
Huh-7 [24] = test: Induction of apoptosis in human Huh-7 cells assessed as necrotic cells at 25 nM incubated for 48 hrs by Annexin V-FITC/PI staining based flow cytometry method (reference value: 1.0%); format: functional
Hep 3B2 [25] = test: Induction of apoptosis in human Hep3B cells assessed as early apoptotic cells at 25 nM measured after 48 hrs by annexin V-FITC/Propidium iodide staining based flow cytometric analysis (reference value: 1.6%); format: functional
Hep 3B2 [26] = test: Induction of apoptosis in human Hep3B cells assessed as viable cells at 25 nM incubated for 48 hrs by Annexin V-FITC/PI staining based flow cytometry method (reference value: 93.3%); format: functional; conditions: read-out: Activity
Hep 3B2 [27] = test: Induction of apoptosis in human Hep3B cells assessed as late apoptotic cells at 25 nM incubated for 48 hrs by Annexin V-FITC/PI staining based flow cytometry method (reference value: 3.5%); format: functional
Hep 3B2 [28] = test: Induction of apoptosis in human Hep3B cells assessed as upregulation of PARP level […] incubated for 48 hrs in presence of 4,6-dimorpholino-N-(4-nitrophenyl)-1,3,5-triazin-2-amine by immunoblot analysis; format: functional, cell-based
Hep 3B2 [29] = test: Induction of apoptosis in human Hep3B cells assessed as […] level at upto 25 nM incubated for 48 hrs by Western blot analysis; format: functional, cell-based
Hep 3B2 [30] = test: Induction of apoptosis in human Hep3B cells assessed as increase in PARP expression at upto 25 nM incubated for 48 hrs by Western blot analysis; format: functional, cell-based
Huh-7 [31] = test: Induction of autophagic flux in human Huh-7 cells assessed as rescue of LC3-II accumulation at 25 uM incubated for 48 hrs in presence of chloroquine by Western blot analysis; format: functional, cell-based
Hep 3B2 [32] = test: Induction of apoptosis in human Hep3B cells assessed as increase in cleaved caspase-3 level at 25 nM incubated for 48 hrs in presence of chloroquine by immunoblot analysis; format: functional, cell-based
Hep 3B2 [33] = test: Induction of autophagy in human Hep3B cells assessed as reduction in ULK1 phosphorylation level incubated for 48 hrs by immunoblot method; format: functional, cell-based; conditions: dose 0-25 nM
Hep 3B2 [34] = test: Induction of apoptosis in human Hep3B cells assessed as increase in caspase-3 expression at upto 25 nM incubated for 48 hrs by Western blot analysis; format: functional, cell-based

Structure (SMILES): CCN(CC)CCCC(C)Nc1ccnc2cc(Cl)ccc12 (centres undefined) [CHLOROQUINE]
- viability at 0.01 µM (Hep 3B2 [1]): 93.6%
- Activity (Hep 3B2 [2]): 1.5%
- Activity (Huh-7 [3]): Active
- Activity (Hep 3B2 [4]): Active
- Activity (Huh-7 [5]): Active
- Activity (Huh-7 [6]): 4.9%

Structure (SMILES): C[C@]12CC[C@H](O)C[C@H]1CC[C@@H]1[C@@H]2[C@H](O)C[C@]2(C)[C@@H](c3ccc(=O)oc3)CC[C@]12O [GAMABUFOTALIN]
- Activity [7]: Non-Toxic
- Activity (Hep 3B2 [8]): 0.6%
- Activity (Huh-7 [9]): 24.4%
- Activity (Huh-7 [10]): Active
- viability at 0.025 µM (Huh-7 [11]): 80%
- Activity (Hep 3B2 [12]): Active
- Activity (Hep 3B2 [13]): Active
- Activity (Hep 3B2 [14]): 17.4%
- Activity (Hep 3B2 [15]): Active
- Activity (Huh-7 [16]): 4%
- Activity [17]: Non-Toxic
- Activity (Huh-7 [18]): Active
- Activity (Huh-7 [19]): Active
- Activity [20]: Non-Toxic
- Activity (Hep 3B2 [21]): 11.4%
- Activity (Huh-7 [22]): Active
- Activity (Huh-7 [23]): Active
- Activity (Huh-7 [24]): 1.1%
- Activity (Hep 3B2 [25]): 6.6%
- viability at 0.025 µM (Hep 3B2 [26]): 84.9%
- Activity (Hep 3B2 [27]): 13.7%
- Activity (Hep 3B2 [28]): Active
- Activity (Hep 3B2 [29]): Active
- Activity (Hep 3B2 [30]): Active
- Activity (Huh-7 [31]): Active
- Activity (Hep 3B2 [32]): Active
- Activity (Hep 3B2 [33]): Dose-Dependent Effect
- Activity (Hep 3B2 [34]): Active
